In article PMC2785468, “Androgen Receptor Mutations Associated with Androgen Insensitivity Syndrome: A High Content Analysis Approach Leading to Personalized Medicine” (PLoS ONE, 2009):

Target: T1, AR-F764L (Homo sapiens, UniProt P10275, F765L)
T1 construct: expressed in transfected cells
T1 sequence (P10275 1-920 F765L): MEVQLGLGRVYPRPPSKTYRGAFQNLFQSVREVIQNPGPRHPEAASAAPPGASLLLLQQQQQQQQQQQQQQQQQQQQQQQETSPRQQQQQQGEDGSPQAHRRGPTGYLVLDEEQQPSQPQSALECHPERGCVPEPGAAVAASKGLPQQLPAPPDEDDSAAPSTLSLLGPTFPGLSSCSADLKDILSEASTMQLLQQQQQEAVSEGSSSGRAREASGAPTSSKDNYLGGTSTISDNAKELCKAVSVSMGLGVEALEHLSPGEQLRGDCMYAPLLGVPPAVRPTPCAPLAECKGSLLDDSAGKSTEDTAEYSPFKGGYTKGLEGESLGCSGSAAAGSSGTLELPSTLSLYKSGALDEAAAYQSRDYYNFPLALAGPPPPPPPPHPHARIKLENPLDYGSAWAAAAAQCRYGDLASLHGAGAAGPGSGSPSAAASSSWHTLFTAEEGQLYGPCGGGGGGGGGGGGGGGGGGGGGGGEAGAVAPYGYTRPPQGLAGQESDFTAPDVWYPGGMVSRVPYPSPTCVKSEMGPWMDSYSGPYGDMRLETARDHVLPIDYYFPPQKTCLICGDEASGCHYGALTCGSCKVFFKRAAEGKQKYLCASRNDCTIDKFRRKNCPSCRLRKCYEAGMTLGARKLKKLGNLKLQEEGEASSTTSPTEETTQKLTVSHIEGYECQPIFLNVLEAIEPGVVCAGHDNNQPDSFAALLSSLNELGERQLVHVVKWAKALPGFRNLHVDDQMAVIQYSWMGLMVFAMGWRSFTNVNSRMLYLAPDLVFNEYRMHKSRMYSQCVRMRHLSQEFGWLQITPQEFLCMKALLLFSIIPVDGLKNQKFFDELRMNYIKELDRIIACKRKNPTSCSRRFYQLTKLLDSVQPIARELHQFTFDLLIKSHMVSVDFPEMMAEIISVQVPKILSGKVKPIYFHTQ
Type: cell-based
Description: To determine the global effect of the various AIS mutations on AR signaling, each was analyzed using HCA. This technology allows simultaneous quantification of AR protein expression, nuclear translocation, subnuclear patterning, and transcriptional activity. The analysis was done in HeLa cell lines stably transfected with wild type or mutant ARs fused with green fluorescent protein, or using AR immunofluorescence in primary cultures of genital skin fibroblasts generated from foreskin biopsies of historical AIS patients, or of normal neonates undergoing circumcision at birth. To prevent the effects of receptor over-expression, stable HeLa cells were carefully selected to express AR levels similar to LNCaP as previously described. Prior to ligand treatment, HeLa cells were transfected with the pARR2PB-dsRED2skl reporter plasmid, consisting of the AR responsive promoter ARR2PB [31] driving expression of the red fluorescent protein reporter dsRED2skl engineered to target peroxisomes.
For studies utilizing HeLa GFP-AR cell lines, twenty-four hours before transfection with pARR2PB-dsRED2skl, cells were plated onto 100 mm plastic dishes in medium supplemented with 5% charcoal-stripped and dialyzed-FBS. Transient introduction of the pARR-2PB-dsRED2skl reporter construct was performed using 6.0 µg reporter plasmid and 6.0 µg carrier DNA (BlueScript, Stratagene, San Diego, CA) using Transfectin (Biorad) following standard protocols. After 8-hour incubation, DNA/lipid complexes were removed. Cells were then trypsinized and replated at 10,000 cells per well in Nunc poly-D-lysine treated 96-well optical glass bottom plates and incubated an additional 12 hours to allow for cell adhesion. […] Compound dilutions and final addition to multi-well plates were performed using a Beckman Biomek NX robotic platform to ensure repeatability from experiment to experiment. After incubation was complete, using the Biomek NX robot, plates were washed with PBS and fixed for 20 min at RT in 4% formaldehyde prepared in CSK buffer (80 mM potassium PIPES, pH 6.8, 5 mM EGTA, 2 mM MgCl2). After fixation, cells were briefly permeabilized (5 min) with 0.5% Triton-X and prepared for imaging by washing in PBS, aspirating the washed solution, and adding a 1 ng/ml DAPI solution to stain DNA and a generic protein stain (CellMask, Invitrogen) to facilitate cell and nuclear image segmentation. Cells were imaged in PBS.
Cells were imaged using the Cell Lab IC-100 Image Cytometer (IC-100; Beckman Coulter) platform that consists of 1) Nikon Eclipse TE2000-U Inverted Microscope (Nikon; Melville, NY); 2) Chroma 82000 triple band filter set (Chroma; Brattleboro, VT); 3) an imaging camera: Hamamatsu ORCA-ER Digital CCD camera (Hamamatsu; Bridgewater, NJ); and 4) a focusing camera: Photonics COHU Progressive scan camera (Photonics; Oxford, MA). […] In general, 49 to 64 images were captured per well for image analysis.
While our initial AR studies using HTM were based upon CytoShop (Beckman-Coulter), [15], [33], these approaches were refined in the current work with the more robust server-client Pipeline Pilot image analysis platform (Basic and Advanced Imagine Collections, Pipeline Pilot 7.5, Accelrys, San Diego). Initially, the background signal was removed from all images using plate- and channel-specific correction images, generated by the sum projection of >600 randomly selected images for each channel from the image set. This allows for a pixel-by-pixel background subtraction that compensates any consistent uneven background artifacts in the image set. Furthermore, users are able to customize the degree of background subtraction by applying a multiplier to each correction image, useful for identification of objects such as nuclei or cell borders. After background subtraction, nuclear masks were generated using a combination of non-linear least squares and watershed-from-markers image manipulations of the DAPI images (Fig. 1B).

Compound: C[C@@H]1CC2=CC(=O)CC[C@@H]2[C@H]2CC[C@@]3(C)[C@@H](CC[C@]3(C)O)[C@@H]21 [Mb, Mibolerone]
- recovery of AR-F764 activity, % of control (AR-F764L, discussion, test not specified): 45%
- hyperspeckling response (HeLa AR-F764L): 132 fold increase
- induction of transcriptional activity (HeLa AR-F764L): 36 fold
- increase in the percent of nuclear GFP signal (HeLa AR-F764L, vs untreated): 31%
- Nuclear Translocation, Max (HeLa F764L, % signal present in the nucleus): 73.2±0.8%
- Hyperspeckling, Max (HeLa F764L, absolute numerical measurement): 965±8
- Transcriptional Activity, Max (HeLa F764L, pARR2PB-dsRED2skl reporter, absolute numerical measurement): 92.9±2.2
